Source: patent US20150152395A1, “CHIMERIC LUCIFERASES” (Connecticut College, priority 2012, published 2015)

Tests used:
[1] = test system: PpyLit, chimeric luciferase of PpyWT residues 1-439 and LitWT residues 440-550, SEQ ID NO: 8; test: Relative rate of adenylate formation (L-AMP formation from dehydroluciferin), fluorescence-based; assay type: biochemical, Photinus pyralis / Luciola italica; settings: faster than PpyWT, pH 7.4
Description: Using an excitation wavelength of 350 nm, the luciferase-catalyzed formation of L-AMP from dehydroluciferin (L), initiated by the addition of Mg-ATP, was assessed by following the decrease in the intensity of the 440 nm fluorescence of the initial enzyme-L complex. The change in fluorescence was used to estimate the rates of L-AMP formation catalyzed by the luciferases. Assays (0.4 mL) in 50 mM Tris buffer, pH 7.4 contained 2.8 μM enzyme and 0.55 μM L. The initial fluorescence at 440 nm was recorded and then the decrease was monitored following the rapid injection of 50 μL solutions of varying concentrations of Mg-ATP in the same buffer. The rates of decrease (slopes) were calculated and used to determine the initial velocities for each Mg-ATP concentration. The data were fitted using a nonlinear least squares method of the Enzyme Kinetics Pro software (SynTex), which fits data from the Michalis-Menten equation to a rectangular hyperbola, and the Vmax values were obtained. The corresponding kcat values were obtained by dividing the Vmax values (μmol/s) by the final amounts (μmol) of each luciferase in the assay mixtures.

[2] = target: Photinus pyralis luciferase, recombinant wild type (PpyWT), SEQ ID NO: 4, with N-terminal peptide GPLGS (Photinus pyralis, UniProt P08659); test: Steady-state kinetic constants, bioluminescence activity; assay type: biochemical; settings: pH 7.8; Vmax from LH2 Km measurement
[3] = test system: LitPpy, chimeric luciferase of LitWT residues 1-439 and PpyWT residues 440-550; test: as above; assay type: biochemical, Luciola italica / Photinus pyralis; settings: pH 7.8
Description: (§1) Reactions were initiated by injection of solutions of the substrate being maintained at saturating concentration. Kinetic constants were determined using a nonlinear least squares method of the Enzyme Kinetics Pro software (SynTex), which fits data from the Michalis-Menten equation to a rectangular hyperbola. The corresponding kcat values were obtained by dividing the Vmax values by the amount (μmol) of each luciferase in the assay mixtures.

[4] = test system: Ppy GR-TSLit, chimeric luciferase of Ppy GR-TS N-domain and LitWT C-domain; test: as above; assay type: biochemical, Photinus pyralis / Luciola italica; settings: pH 7.8
Description: as §1

[5] = test system: Ppy RE-TSLit, chimeric luciferase of Ppy RE-TS N-domain and LitWT C-domain; test: as above; assay type: biochemical, Photinus pyralis / Luciola italica; settings: pH 7.8
Description: as §1

[6] = test system: PpyLit (chimeric luciferase, SEQ ID NO: 8) variant F465R; test: as above; assay type: biochemical, Photinus pyralis / Luciola italica; settings: pH 7.8
Description: as §1

[7] = test system: PpyLit (chimeric luciferase, SEQ ID NO: 8) variant I232A/E354K; test: as above; assay type: biochemical, Photinus pyralis / Luciola italica; settings: pH 7.8
Description: as §1

[8] = test system: PpyLit (chimeric luciferase, SEQ ID NO: 8) variant I232A/I351V/E354K; test: as above; assay type: biochemical, Photinus pyralis / Luciola italica; settings: pH 7.8
Description: as §1

[9] = test system: PpyLit (chimeric luciferase, SEQ ID NO: 8) variant I351V/E354K/F465R; test: as above; assay type: biochemical, Photinus pyralis / Luciola italica; settings: pH 7.8
Description: as §1

[10] = test system: PpyLit (chimeric luciferase, SEQ ID NO: 8) variant I351V/E354K; test: as above; assay type: biochemical, Photinus pyralis / Luciola italica; settings: pH 7.8
Description: as §1

[11] = test system: PpyLit (chimeric luciferase, SEQ ID NO: 8) variant S284T/F465R; test: as above; assay type: biochemical, Photinus pyralis / Luciola italica; settings: pH 7.8
Description: as §1

[12] = test system: PpyLit (chimeric luciferase, SEQ ID NO: 8) variant S284T/I351V/E354K; test: as above; assay type: biochemical, Photinus pyralis / Luciola italica; settings: pH 7.8
Description: as §1

[13] = test system: PpyLit (chimeric luciferase, SEQ ID NO: 8) variant S284T; test: as above; assay type: biochemical, Photinus pyralis / Luciola italica; settings: pH 7.8
Description: as §1

[14] = test system: PpyLit, chimeric luciferase of PpyWT residues 1-439 and LitWT residues 440-550, SEQ ID NO: 8; test: as above; assay type: biochemical, Photinus pyralis / Luciola italica; settings: pH 7.8
Description: as §1

[15] = test system: PpyLit, chimeric luciferase of PpyWT residues 1-439 and LitWT residues 440-550, SEQ ID NO: 8; test: Rate of oxidative half-reaction with synthetic LH2-AMP; assay type: biochemical, Photinus pyralis / Luciola italica; settings: faster than PpyWT; LH2-AMP as substrate, pH 7.8
Description: The estimated rates of the oxidative half-reactions were based on bioluminescence activity assays using synthetic LH2-AMP as the substrate. Assays (0.510 mL) in 50 mM glycylglycine buffer, pH 7.8, contained 0.1 mL aliquots of LH2-AMP solution (final concentration 1.5-35 μM) in 10 mM sodium acetate, pH 4.5. Immediately, light reactions were initiated by injections of 10 μL of luciferase enzymes (0.4-1 μg in CBA). Kinetic constants were determined using a nonlinear least squares method of the Enzyme Kinetics Pro software (SynTex), which fits data from the Michalis-Menten equation to a rectangular hyperbola. The corresponding kcat values were obtained by dividing the Vmax values by the final amounts (μmol) of each luciferase in the assay mixtures.

[16] = substrate: Nc1ncnc2c1ncn2[C@@H]1O[C@H](COP(=O)(O)OP(=O)(O)OP(=O)(O)O)[C@@H](O)[C@H]1O; test: purified protein, by the assay type; settings: other: pH 7.8, LH2 saturating, 37.0 °C
[17] = substrate: O=C(O)[C@H]1CSC(c2nc3ccc(O)cc3s2)=N1; test: purified protein, by the assay type; settings: other: pH 7.8, Mg-ATP saturating, 37.0 °C
[18] = read-out: Km LH2, Mg-ATP saturating

Sequence of Photinus pyralis luciferase, recombinant wild type (PpyWT), SEQ ID NO: 4, with N-terminal peptide GPLGS (P08659 whole entry, the tested form may be a part): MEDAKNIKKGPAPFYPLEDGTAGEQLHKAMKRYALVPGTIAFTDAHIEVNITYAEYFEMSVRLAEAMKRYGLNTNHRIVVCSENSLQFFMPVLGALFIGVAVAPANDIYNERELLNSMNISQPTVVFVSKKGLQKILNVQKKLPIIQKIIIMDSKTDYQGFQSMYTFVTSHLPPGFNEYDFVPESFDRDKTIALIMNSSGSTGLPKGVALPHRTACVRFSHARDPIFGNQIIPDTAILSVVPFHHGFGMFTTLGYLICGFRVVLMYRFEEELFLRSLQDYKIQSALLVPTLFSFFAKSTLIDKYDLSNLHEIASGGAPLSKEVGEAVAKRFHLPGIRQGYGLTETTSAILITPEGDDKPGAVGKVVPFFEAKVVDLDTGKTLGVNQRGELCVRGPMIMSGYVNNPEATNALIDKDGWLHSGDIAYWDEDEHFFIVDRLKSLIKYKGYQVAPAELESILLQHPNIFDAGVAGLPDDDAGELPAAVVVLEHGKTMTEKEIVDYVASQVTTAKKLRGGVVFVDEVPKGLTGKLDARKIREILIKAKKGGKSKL

For `O=C(O)c1csc(-c2nc3ccc(O)cc3s2)n1` [L, dehydroluciferin], the “rate of adenylate formation half reaction” value [1] was about 1.35 fold.

In the case of `O=C(O)[C@H]1CSC(c2nc3ccc(O)cc3s2)=N1` [LH2, D-firefly luciferin], the kcat [2] is reported as 0.18 ± 0.01 s⁻¹, the kcat ([3]; Vmax from LH2 Km measurement) is reported as 0.033 ± 0.001 s⁻¹ and the Km [3, 18] is reported as 54 ± 5 µM. For the same molecule, the kcat ([4]; Vmax from LH2 Km measurement) was 0.079 ± 0.001 s⁻¹, the Km [4, 18] was 123 ± 9 µM and the kcat ([5]; Vmax from LH2 Km measurement) was 0.09 ± 0.003 s⁻¹. It also gave a Km [5, 18] of 51 ± 3 µM, a kcat ([6]; Vmax from LH2 Km measurement) of 0.34 ± 0.02 s⁻¹ and a Km [6, 18] of 31 ± 3 µM. For the same molecule, the kcat ([7]; Vmax from LH2 Km measurement) was 0.25 ± 0.01 s⁻¹, the Km [7, 18] was 24 ± 3 µM and the kcat ([8]; Vmax from LH2 Km measurement) was 0.24 ± 0.01 s⁻¹. It also gave a Km [8, 18] of 51 ± 5 µM, a kcat ([9]; Vmax from LH2 Km measurement) of 0.29 ± 0.01 s⁻¹ and a Km [9, 18] of 83 ± 3 µM. It also gave a kcat ([10]; Vmax from LH2 Km measurement) of 0.30 ± 0.02 s⁻¹, a Km [10, 18] of 52 ± 5 µM and a kcat ([11]; Vmax from LH2 Km measurement) of 0.10 ± 0.01 s⁻¹. It also gave a Km [11, 18] of 22 ± 3 µM, a kcat ([12]; Vmax from LH2 Km measurement) of 0.13 ± 0.01 s⁻¹ and a Km [12, 18] of 49 ± 5 µM. The kcat ([13]; Vmax from LH2 Km measurement) was 0.10 ± 0.01 s⁻¹, the Km [13, 18] was 15 ± 2 µM and the kcat ([14]; Vmax from LH2 Km measurement) was 0.32 ± 0.02 s⁻¹. It also gave a Km [14, 18] of 25 ± 2 µM.

In the case of `Nc1ncnc2c1ncn2[C@@H]1O[C@H](COP(=O)(O)OC(=O)[C@H]2CSC(c3nc4ccc(O)cc4s3)=N2)[C@@H](O)[C@H]1O` [LH2-AMP], the “rate of oxidative half reaction” value [15] is reported as about 1.35 fold.

B1: LitWT, recombinant Luciola italica luciferase containing Lys547Gly/Met548Gly, SEQ ID NO: 6, with N-terminal peptide GPLGS (Luciola italica; K547G/M548G) (protein)
chain: METEREENVVYGPLPFYPIEEGSAGIQLHKYMQQYAKLGAIAFSNALTGVDISYQQYFDITCRLAEAMKNYGMKPEGHIALCSENCEEFFIPVLAGLYIGVTVAPTNEIYTLRELNHSLGIAQPTIVFSSRKGLPKVLEVQKTVTCIKTIVILDSKVNFGGYDCVETFIKKHVELGFPATSFVPIDVKDRKHHIALLMNSSGSTGLPKGVEITHEGTVTRFSHAKDPIYGNQVSPGTAILTVVPFHHGFGMFTTLGYFACGYRIVMLTKFDEELFLRTLQDYKCTSVILVPTLFAILNRSELLDKFDLSNLTEIASGGAPLAKEIGEAVARRFNLPGVRQGYGLTETTSAFIITPEGDDKPGASGKVVPLFKVKIIDLDTKKTLGVNRRGEICVKGPSLMLGYTNNPEATRETIDEEGWLHTGDIGYYDEDEHFFIVDRLKSLIKYKGYQVPPAELESVLLQHPNIFDAGVAGVPDSEAGELPGAVVVMEKGKTMTEKEIVDYVNSQVVNHKRLRGGVRFVDEVPKGLTGKIDAKVIREILKKPQAGG
In the case of B1, the Km [16] is reported as 180 ± 14 µM, the Km [17] is reported as 90 ± 9 µM and the kcat [17] is reported as 0.14 ± 0.01 s⁻¹.
